Measurements taken from ChEMBL document CHEMBL5120923, “Tamarixetin Attenuated the Virulence of Staphylococcus aureus by Directly Targeting Caseinolytic Protease P” (J Nat Prod, 2022).

Columns and labels:
Staphylococcus aureus [1] = assay: Inhibition of Hla protein expression in methicillin-resistant Staphylococcus aureus USA300 at 4 to 64 ug/ml incubated for overnight by western blot analysis; type: functional; details: dose 4-64 µg/ml, DDE = dose-dependent effect
Staphylococcus aureus [2] = assay: Inhibition of Hla protein expression in methicillin-resistant Staphylococcus aureus Newman at 4 to 64 ug/ml incubated for overnight by western blot analysis; type: functional; details: dose 4-64 µg/ml, DDE = dose-dependent effect

COc1ccc(-c2oc3cc(O)cc(O)c3c(=O)c2O)cc1O [TAMARIXETIN]
inhibition (Staphylococcus aureus [1]): Dde | inhibition (Staphylococcus aureus [2]): Dde
